# Test results: paper PMC6813295, “A tumour-selective cascade activatable self-detained system for drug delivery and cancer imaging” (Nature Communications, 2019)
# Where a SMILES comes first, the peptide text is derived from it. The star is where a group is joined. X1 = CC1(C)C(=CC=C2CCCC(C=CC3=[N+](CCCCCC(=O)O)c4ccccc4C3(C)C)=C2*)N(CCCCCC(=O)O)c2ccccc21
# Assays:
# [1] = target: T1, recombinant human caspase-3 (Homo sapiens, UniProt P42574); assay: Caspase-3 cleavage (HPLC) and induced self-assembly (TEM) in HEPES buffer; format: biochemical; conditions: caspase-3 2 h, substrate-to-enzyme ratio 1 μM/U, HEPES buffer 50 mM pH 7.4, TEM
# T1 construct: purchased Sigma-Aldrich Chemical Co
# T1 sequence (P42574 29-175 limits assumed): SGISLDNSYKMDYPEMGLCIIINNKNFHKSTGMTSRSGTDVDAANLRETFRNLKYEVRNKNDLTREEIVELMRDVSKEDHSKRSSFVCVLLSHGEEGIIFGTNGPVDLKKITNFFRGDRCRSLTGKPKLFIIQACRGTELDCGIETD
# T1 sequence (P42574 176-277 limits assumed): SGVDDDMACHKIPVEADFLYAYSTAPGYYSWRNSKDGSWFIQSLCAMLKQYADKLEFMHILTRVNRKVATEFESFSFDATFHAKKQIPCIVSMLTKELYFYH
# Method: Fig. 2 The structure conformations and self-assembly properties of molecule 1 in aqueous solution. a Illustration of the self-assembly strategy of molecule 1. b CD spectra of molecule 1 and molecule 4 in deionized water at a concentration of 1 μM. c FTIR spectra of molecule 1 in a monomeric state and molecule 4 in a fibrous assembled state. The arrows identify the typical characteristic peaks of the antiparallel β-sheet structure. d TEM image of self-assembled β-sheet nanofibrils of molecule 1 after treatment with caspase-3 (substrate-to-enzyme ratio of 1 μM/U) in HEPES buffer (50 mM, pH 7.4) for 2 h. The manual measurement of the nanofibril diameter is shown in the zoomed image, and the computational simulation result for the length of molecule 4 is inserted. e WAXS and computational simulation results of the β-sheet self-assemblies (molecule 4) identified the β-sheet and laminate spacing of the structures. f The concentration-dependent CD spectra of molecule 4 in the concentration range of 0.5–10 μM. g Time-dependent TEM images of molecule 4 from 10 min to 12 h for monitoring the growth process of the nanofibrous structures. h Temperature-dependent CD intensity changes at 220 nm of molecules 1 and 4 with a heating rate of 1 °C/min and an equilibrium period of 30 s to reveal the self-assembly mechanisms. Scale bar: 100 nm […]
# H460 tumour-bearing mice = assay: Tumour penetration, distance from CD31-stained vessels in frozen tumour sections; format: in vivo, mouse
# Method: Fig. 5 Tumour penetrations of TCASS. a 3D reconstruction PA images of tumour-bearing mice injected with molecule 1, SiO2 nanoparticles (SiO2 NPs) and liposome labelled by Cy. The degrees of penetration into the tumour were calculated. To better illustrate the penetration extent of molecule 1, SiO2 nanoparticles (SiO2 NPs) and liposome labelled by Cy, the tumour tissue was divided into five parts with identical radius intervals, which indicated the trend from the tumour edge to the interior (the red dashed circles show the tumour margin, and the grey dashed circles show the normalized distance from the tumour edge). b Quantification of the PA signal intensity. The PA intensity in the intratumoural distribution area between neighbouring polygons was normalized by the corresponding area. Data are presented as the mean ± s.d. (n = 3). ***p < 0.001, p values were performed with one-way ANOVA followed by post hoc Tukey’s test for the indicated comparison. c Frozen sections of tumour removed after treatment with molecule 1, SiO2 NPs and liposome labelled by Cy for 12 h. The tumour cell nucleus and vessels were stained with DAPI and FITC-tagged CD31 antibody, respectively. d Quantification of the penetrative distance of molecule 1, SiO2 NPs and liposome labelled by Cy from the tumour vessels. Data are presented as the mean ± s.d. (n = 8). ***p < 0.001, p values were performed with one-way ANOVA followed by post hoc Tukey’s test for the indicated comparison. Scale bar: a 2 mm; c 50 μm
# All animal experiments were performed as previously described. H460 cells were also subcutaneously implanted on the right flank of xenografts mice. After the tumour had developed, Molecule 1 (14 mg/kg, n = 3), liposome and SiO2 nanoparticles labelled by Cy (the same molar amount of Cy, n = 3) dissolved into PBS was intravenously injected through tail vein of mice. The control group was PBS at the same conditions. […] In order to quantify the PA signal intensity, the intratumoral distribution area was normalized with the tumour regions.
smiles,measurement,setting,value
CC[C@H](C)[C@H](NC(=O)[C@@H]1CCCN1C(=O)[C@@H](NC(=O)[C@H](C)N)C(C)C)C(=O)N[C@@H](C)C(=O)N[C@@H](CCC(N)=O)C(=O)N[C@@H](CCCCN)C(=O)N[C@@H](CC(=O)O)C(=O)N[C@@H](CCC(=O)O)C(=O)N[C@H](C(=O)N[C@@H](CC(=O)O)C(=O)N[C@@H](CCCCN)C(=O)N[C@@H](CC(C)C)C(=O)N[C@H](C(=O)N[C@@H](Cc1ccccc1)C(=O)N[C@@H](Cc1ccccc1)C(=O)N[C@@H](C)C(=O)N[C@@H](CCC(=O)O)C(=O)N[C@@H](CSC1=C(C=CC2=[N+](CCCCCC(=O)O)c3ccccc3C2(C)C)CCCC1=CC=C1N(CCCCCC(=O)O)c2ccccc2C1(C)C)C(=O)NCC(=O)O)C(C)C)C(C)C [molecule 1] (H-AVPIAQKDEVDKLVFFAEC(X1)G-OH),diameter of nanofibrils after incubation with caspase-3,[1],approximately 5.8 ± 0.6 nm
same,penetrative distance of signal from the tumour blood vessels,"H460 tumour-bearing mice; 12 h post IV injection, 14 mg/kg or same molar amount of Cy, frozen sections, mean ± s.d. n = 8",approximately 67.4 ± 10.3 μm
same,penetration distance of molecule 1 relative to SiO2 nanoparticles,H460 tumour-bearing mice; 12 h post injection,~10 times
same,penetration distance of molecule 1 relative to liposomes,H460 tumour-bearing mice; 12 h post injection,approximately 13 times
